Measured values taken from patent publication US20110237659A1, “CHROMENONE DERIVATIVES AS TRPV3 ANTAGONISTS” (GLENMARK PHARMACEUTICALS S.A., priority 2008, published 2011).
pIC50: −log10 of the molar value.

Molecular target: T1, Human TRPV3 (Homo sapiens, UniProt Q8NET8)
T1 construct: expressed in transfected cells; host or cells: CHO cells
T1 sequence (Q8NET8 1-790): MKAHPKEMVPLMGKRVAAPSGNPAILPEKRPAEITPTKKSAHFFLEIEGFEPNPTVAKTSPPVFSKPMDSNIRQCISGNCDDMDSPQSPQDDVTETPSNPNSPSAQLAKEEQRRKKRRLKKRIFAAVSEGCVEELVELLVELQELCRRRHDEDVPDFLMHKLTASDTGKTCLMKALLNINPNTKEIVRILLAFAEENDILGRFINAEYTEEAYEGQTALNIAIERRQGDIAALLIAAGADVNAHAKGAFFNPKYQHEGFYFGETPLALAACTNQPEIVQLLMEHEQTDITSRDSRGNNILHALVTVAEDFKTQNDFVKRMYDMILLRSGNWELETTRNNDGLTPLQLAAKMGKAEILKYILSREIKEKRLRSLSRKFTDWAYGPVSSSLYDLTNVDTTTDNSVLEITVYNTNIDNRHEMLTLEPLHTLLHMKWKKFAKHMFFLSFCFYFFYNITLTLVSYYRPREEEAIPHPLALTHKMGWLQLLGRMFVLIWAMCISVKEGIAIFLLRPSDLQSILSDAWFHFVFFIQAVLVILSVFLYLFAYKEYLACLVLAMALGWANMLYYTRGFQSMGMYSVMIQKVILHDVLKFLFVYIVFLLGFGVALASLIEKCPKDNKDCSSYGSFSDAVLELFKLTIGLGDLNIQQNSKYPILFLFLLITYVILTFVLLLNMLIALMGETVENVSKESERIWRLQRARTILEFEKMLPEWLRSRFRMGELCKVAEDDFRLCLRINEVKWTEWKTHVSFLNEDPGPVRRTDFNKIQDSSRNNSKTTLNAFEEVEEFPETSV
Assay: 45Calcium uptake assay: inhibition of 2-APB induced cellular uptake of radioactive calcium in human TRPV3 expressing CHO cells
Type: cell-based
Conditions: 2-APB 500 μM
From the text: The illustrative examples of the present invention are screened for TRPV3 activity according to a modified procedure described in (a) Tóth, A. et al. Life Sciences 2003, 73, 487-498. (b) McNamara C, R. et al. Proc. Natl. Acad. Sci. U.S.A., 2007, 104, 13525-13530. The screening of the compounds can be carried out by other methods and procedures known to persons skilled in the art.
Screening for TRPV3 Antagonist Using the ^45Calcium Uptake Assay
The inhibition of TRPV3 receptor activation was followed as inhibition of 2-aminoethxydiphenylborate (2-APB) induced cellular uptake of radioactive calcium. Test compounds were dissolved in dimethyl sulfoxide (DMSO) to prepare 20 mM stock solution and then diluted using plain medium with DMEM/F-12 containing 1.8 mM CaCl2 to get desired concentration. Final concentration of DMSO in the reaction was 0.5% (v/v). Human TRPV3 expressing CHO cells were grown in DMEM/F-12 medium with 10% FBS, 1% penicillin-streptomycin solution, 400 μg/mL of G-418. Cells were seeded 24 h prior to the assay in 96 well plates so as to get ˜50,000 cells per well on the day of experiment. Cells were treated with test compounds for 10 minutes followed by addition of 2-APB at a final concentration of 500 μM and 5 μCi/mL ^45Ca^+2 for 4 minutes. Cells were washed and lysed using buffer containing 1% Triton X-100, 0.1% deoxycholate and 0.1% SDS. Radioactivity in the lysate was measured in Packardt Top count after addition of liquid scintillant. Concentration response curves were plotted as a % of maximal response obtained in the absence of test antagonist. IC50 value was calculated from concentration response curve by nonlinear regression analysis using GraphPad PRISM software.
Percentage inhibition at concentrations of 1.0 μM and 10.0 μM are given in the table along with IC50 (nM) values for selected examples.

COc1cccc(/C=C/c2oc3cc(F)c(F)cc3c(=O)c2-c2ccc(C#N)cc2)c1OC1CCCC1 [Example 23, 4-{2-[(E)-2-[2-Cyclopentyloxy-3-methoxyphenyl)-1-ethenyl]-6,7-difluoro-4-oxo-4H-3-chromenyl}benzonitrile]
inhibition at 1 µM (1.0 μM test compound, read-out: Percentage inhibition at 1.0 μM): 75.8%
inhibition at 10 µM (10.0 μM test compound, read-out: Percentage inhibition at 10.0 μM): 86.7%
pIC50: > 7.30
